The values below come from US20060194756A1 (priority 2004, published 2006).

Where two headings read alike, the source gives them in different places.

The subject of assay [1] is HIF-1α protein expression in A375 melanoma cells. As to the kind of experiment: HIF-1α protein accumulation in A375 cells (immunoblot, densitometry). The assay is classed as cell-based, human. Particulars: for prevention of adenosine-induced HIF-1α protein expression: adenosine 100 μM, antagonist 100 nM, hypoxia 4 hours; for abrogation of the effect of Cl-IB-MECA in HIF-1α modulation: antagonist 10 and 100 nM, Cl-IB-MECA 10 and 100 nM; for inhibition of Cl-IB-MECA-induced increase of HIF-1α protein expression: U0126 10 and 30 μM, SB202190 1 and 10 μM. The procedure: (§1) Cell culture and hypoxia treatment: Cells were maintained in DMEM (A375), EMEM (NCTC 2544) or RPMI 1640 (U87MG, U2OS) medium containing 10% fetal calf serum, penicillin (100 U/ml), streptomycin (100 ug/ml), and L-glutamine (2 mM) at 37° C. in 5% CO2/95% air. Cells were passaged two or three times weekly at a ratio between 1:5 and 1:10. Hypoxic exposure was in BBL™ GasPak pouch™ System (Becton Dickinson) that reduce oxygen concentration of less than 2% within 2 hours of incubation at 35° C.
Cells were harvested and washed with ice-cold PBS containing 1 mM sodium orthovanadate, AEBSF 104 mM, aprotinin 0.08 mM, leupeptin 2 mM, bestatin 4 mM, pepstatin A 1.5 mM, E-64 1.4 mM. Cells were then lysed in Triton lysis buffer. The protein concentration was determined using BCA protein assay kit (Pierce). […] The gel was then electroblotted onto a nitrocellulose membrane. Membranes were blocked with 5% nonfat dry milk in PBS containing 0.1% Tween-20 and incubated with antibodies against HIF-1α (1:250 dilution) and HIF-1β (1:1000 dilution) in 5% nonfat dry milk in PBS/0.1% Tween-20 overnight at 4° C. Aliquots of total protein sample (50 μg) were analyzed using antibodies specific for phosphorylated (Thr183/Tyr185) or total p44/p42 MAPK (1:5000 dilution), phosphorylated (Thr180/Tyr182) or total p38 MAPK (1:1000 dilution) and for A3 receptor (1 μg/ml dilution). Filters were washed and incubated for 1 hour at room temperature with peroxidase-conjugated secondary antibodies against mouse and rabbit IgG (1:2000 dilution). […] The membranes were then stripped and reprobed with tubulin (1:250) to ensure equal protein loading.
U0126 was used at 10 and 30 uM as inhibitor of MEK-1 and MEK-2 to prevent p44 and p42 MAPK activation. SB202190 was used at 1 and 10 μM as inhibitor of p38 MAPK.
(§2) Densitometry analysis: The intensity of each band in immunoblot assay was quantified using molecular analyst/PC densitometry software (Bio-Rad). […] The data were presented as the mean±S.E., and analyzed by the Student's test.

Assay [2] concerns HIF-1β protein expression in A375 melanoma cells. As to the kind of experiment: HIF-1β protein expression in A375 cells (immunoblot). The class given is cell-based, human. The settings on record: hypoxia (Cl-IB-MECA: normoxia and hypoxia). The procedure:
as §1
Cells were harvested and washed with ice-cold PBS containing 1 mM sodium orthovanadate, AEBSF 104 mM, aprotinin 0.08 mM, leupeptin 2 mM, bestatin 4 mM, pepstatin A 1.5 mM, E-64 1.4 mM. Cells were then lysed in Triton lysis buffer. The protein concentration was determined using BCA protein assay kit (Pierce). Equivalent amounts of protein (35 ug) were subjected to electrophoresis on 7.5% sodium dodecyl sulfate-acrylamide gel. The gel was then electroblotted onto a nitrocellulose membrane. Membranes were blocked with 5% nonfat dry milk in PBS containing 0.1% Tween-20 and incubated with antibodies against HIF-1α (1:250 dilution) and HIF-1β (1:1000 dilution) in 5% nonfat dry milk in PBS/0.1% Tween-20 overnight at 4° C. Aliquots of total protein sample (50 μg) were analyzed using antibodies specific for phosphorylated (Thr183/Tyr185) or total p44/p42 MAPK (1:5000 dilution), phosphorylated (Thr180/Tyr182) or total p38 MAPK (1:1000 dilution) and for A3 receptor (1 μg/ml dilution). Filters were washed and incubated for 1 hour at room temperature with peroxidase-conjugated secondary antibodies against mouse and rabbit IgG (1:2000 dilution). […] The membranes were then stripped and reprobed with tubulin (1:250) to ensure equal protein loading.

The conditions of assay [3]: transient middle cerebral artery occlusion focal ischemia; cited from earlier work.
For assay [4] the following is noted: rat 4 vessel occlusion model; cited from earlier work.
Assay [5] relates to p38 MAPK phosphorylation in A375 cells. As to the kind of experiment: p38 MAPK phosphorylation in hypoxic A375 cells (immunoblot). The class given is cell-based, human. The settings on record: 4 hours in hypoxia, various concentrations. On the procedure: (§3) Cells were harvested and washed with ice-cold PBS containing 1 mM sodium orthovanadate, AEBSF 104 mM, aprotinin 0.08 mM, leupeptin 2 mM, bestatin 4 mM, pepstatin A 1.5 mM, E-64 1.4 mM. Cells were then lysed in Triton lysis buffer. The protein concentration was determined using BCA protein assay kit (Pierce). Equivalent amounts of protein (35 ug) were subjected to electrophoresis on 7.5% sodium dodecyl sulfate-acrylamide gel. The gel was then electroblotted onto a nitrocellulose membrane. Membranes were blocked with 5% nonfat dry milk in PBS containing 0.1% Tween-20 and incubated with antibodies against HIF-1α (1:250 dilution) and HIF-1β (1:1000 dilution) in 5% nonfat dry milk in PBS/0.1% Tween-20 overnight at 4° C. Aliquots of total protein sample (50 μg) were analyzed using antibodies specific for phosphorylated (Thr183/Tyr185) or total p44/p42 MAPK (1:5000 dilution), phosphorylated (Thr180/Tyr182) or total p38 MAPK (1:1000 dilution) and for A3 receptor (1 μg/ml dilution). Filters were washed and incubated for 1 hour at room temperature with peroxidase-conjugated secondary antibodies against mouse and rabbit IgG (1:2000 dilution). […]
as §2

Assay [6] relates to HIF-1α protein expression in NCTC 2544 keratinocytes. As to the kind of experiment: HIF-1α protein expression in NCTC 2544 keratinocytes under hypoxia. The class given is cell-based, human. Particulars: NCTC 2544, Cl-IB-MECA 100 nM, 4 hours of hypoxia. On the procedure:
as §1
as §3, with “Membranes were blocked with 5% nonfat dry milk in PBS containing 0.1% Tween-20 and incubated with antibodies against HIF-1α (1:250 dilution) and HIF-1β (1:1000 dilution) in 5% nonfat dry milk in PBS/0.1% Tween-20 overnight at 4° C.” left out, “dilution).” for “dilution). Filters were washed and incubated for 1 hour at room temperature with peroxidase-conjugated secondary antibodies against mouse and rabbit IgG (1:2000 dilution).”

Assay [7] concerns HIF-1α protein expression in U2OS osteosarcoma cells. As to the kind of experiment: HIF-1α protein expression in U2OS osteosarcoma cells under hypoxia. The class given is cell-based, human. The settings on record: Cl-IB-MECA 100 nM, 4 hours of hypoxia. On the procedure:
as §1
as §3, with “Membranes were blocked with 5% nonfat dry milk in PBS containing 0.1% Tween-20 and incubated with antibodies against HIF-1α (1:250 dilution) and HIF-1β (1:1000 dilution) in 5% nonfat dry milk in PBS/0.1% Tween-20 overnight at 4° C.” left out, “dilution).” for “dilution). Filters were washed and incubated for 1 hour at room temperature with peroxidase-conjugated secondary antibodies against mouse and rabbit IgG (1:2000 dilution).”

Assay [8] deals with HIF-1α protein degradation in A375 cells. The experiment in a line: HIF-1α degradation after return of hypoxic A375 cells to normoxia. Particulars: Cl-IB-MECA 100 nM, 4 hours hypoxia then normoxia 0-15 minutes. The class given is cell-based, human. The procedure:
as §3, §2

Assay [9] relates to HIF-1α protein expression in U87MG glioblastoma cells. The experiment in a line: HIF-1α protein expression in U87MG glioblastoma cells under hypoxia. Particulars: Cl-IB-MECA 100 nM, 4 hours of hypoxia. The class given is cell-based, human. The procedure: as §1
as §3, with “Membranes were blocked with 5% nonfat dry milk in PBS containing 0.1% Tween-20 and incubated with antibodies against HIF-1α (1:250 dilution) and HIF-1β (1:1000 dilution) in 5% nonfat dry milk in PBS/0.1% Tween-20 overnight at 4° C.” left out, “dilution).” for “dilution). Filters were washed and incubated for 1 hour at room temperature with peroxidase-conjugated secondary antibodies against mouse and rabbit IgG (1:2000 dilution).”

Assay [10] concerns p44/p42 MAPK phosphorylation in A375 cells. As to the kind of experiment: p44/p42 MAPK phosphorylation in hypoxic A375 cells (immunoblot). The assay is classed as cell-based, human. The settings on record: 4 hours in hypoxia. The procedure: as §3, §2
The conditions of assay [11]: intact anesthetized rabbits studied in situ; cited from earlier work.
Setting [12] is: Cl-IB-MECA 100 nM, 4 hours in hypoxia.

As to `CCCn1c(=O)c2[nH]c(-c3cc(OCC(=O)Nc4ccc5c(c4)OCO5)nn3C)nc2n(CCC)c1=O` [MRE 2029F20], the “prevention of adenosine-induced HIF-1α protein expression” value (shortened to “prevention”) in [1] was “not able to prevent”.

Take `Nc1ncnc2c1ncn2[C@@H]1O[C@H](CO)[C@@H](O)[C@H]1O` [adenosine]: in assay [2], the “modulation of HIF-1β protein expression” value is “did not observe any modulation”.

For `CSCC[C@@H]1NC(=O)[C@H](CC(C)C)NC(=O)[C@H](CCCNC(=N)N)NC(=O)[C@H](CO)NC(=O)[C@@H]2CSSC[C@@H]3NC(=O)[C@H](CO)NC(=O)CNC(=O)[C@H]([C@@H](C)O)NC(=O)[C@H](CSSC[C@H](N)C(=O)N[C@@H](CCCCN)C(=O)NCC(=O)N[C@@H](CCCCN)C(=O)NCC(=O)N[C@@H](C)C(=O)N[C@@H](CCCCN)C(=O)N2)NC(=O)[C@H](CSSC[C@@H](C(N)=O)NC(=O)[C@H](CCCCN)NC(=O)CNC(=O)[C@H](CO)NC(=O)[C@H](CCCNC(=N)N)NC3=O)NC(=O)[C@H](CC(=O)O)NC(=O)[C@H](Cc2ccc(O)cc2)NC1=O` [SNX-111], the neuroprotection entry in assay [3] and in assay [4] was “neuroprotective” throughout.

`Nc1nc2c(cnn2CCc2ccccc2)c2nc(-c3ccco3)nn12` [SCH 58261, 5-amino-7-(2-phenylethyl)-2-(2-furyl)-pyrazolo[4,3-e]-1,2,4-triazolo[1,5-c]pyrimidine]: the “prevention” value in assay [1] is on record as “not able to prevent”.

Take `CNC(=O)[C@H]1O[C@@H](n2cnc3c(NCc4cccc(I)c4)nc(Cl)nc32)[C@H](O)[C@@H]1O` [Cl-IB-MECA]: the “phosphorylation of p38 MAPK” value in [5] is “increased the phosphorylation of p38 MAPK in a dose-dependent manner”. Also, the HIF-1α protein expression entry in assay [6], in assay [7] and in [9] was “significant increase” in each case. The “HIF-1α protein levels in CoCl2-treated cells” value in assay [1] (100 μM CoCl2, normoxia, 4 hours) is “able to increase the levels of HIF-1α protein”. Moreover, in assay [1] (100 μM CoCl2, normoxia, Cl-IB-MECA 100 nM, CHX 1 μM, within 6 hours), the “HIF-1α levels in cells exposed to cycloheximide” value is listed as “failed to increase”. In assay [1] (Act-D 10 μg/ml, Cl-IB-MECA 100 nM, 4 hours in hypoxia), the “HIF-1α protein expression in the presence of actinomycin D” value is reported as “able to increase HIF-1α protein expression also in the presence of Act-D”. The “concentration inducing maximum expression of HIF-1α protein” value in assay [1] (hypoxia, 4 hours) worked out at 100 nM. In addition, the “time of maximum peak HIF-1α levels after addition” value in assay [1] (hypoxia, Cl-IB-MECA 100 nM) is 4 h. Further, in [1] (hypoxia, Cl-IB-MECA 100 nM, 2-24 hours), the “HIF-1α protein expression under hypoxic conditions, time course” value is “increased in a time-dependent manner”. Besides, the “HIF-1α protein accumulation in normoxia” value in [1] (normoxia, Cl-IB-MECA 100 nM) is listed as “did not promote HIF-1α protein accumulation”. For the same compound, the “HIF-1α degradation rate after removal of hypoxic conditions” value in [8] is recorded as “unchanged degradation rate”. Further, the “modulation of HIF-1β protein expression” value in assay [2] was “did not modify”. In [10], the “concentration giving maximum induction of p44/p42 phosphorylation” value worked out at 100 nM. The “phosphorylation of p44 and p42” value in [10] (nanomolar concentrations) is “induced”.

Turning to `Cn1cc2c(nc(NC(=O)Nc3ccncc3)n3nc(-c4ccco4)nc23)n1` [MRE 3005F20], the “abrogation of the effect of Cl-IB-MECA in HIF-1α modulation” value in assay [1] (hypoxia) is given as “able to abrogate”. For the same compound, the “modulation of HIF-1β protein expression” value in assay [2] is recorded as “neither MRE 3008F20 nor MRE 3005F20 had any effect”.

On to `N#CC(=C(/N)Sc1ccccc1N)/C(C#N)=C(\N)Sc1ccccc1N` [U0126], for which the “inhibition of Cl-IB-MECA-induced increase of HIF-1α protein expression” value in assay [1] (setting [12]) is “able to inhibit”.

On to `C[C@H](Cc1ccccc1)Nc1ncnc2c1ncn2[C@@H]1O[C@H](CO)[C@@H](O)[C@H]1O` [PIA, N^6-1-(phenyl-2R-isopropyl) adenosine], for which the cardioprotection entry in [11] is on record as “pharmacologically induce cardioprotection”.

Regarding `CCCn1cc2c(nc(NC(=O)Nc3ccc(OC)cc3)n3nc(-c4ccco4)nc23)n1` [MRE 3008F20], in [1], the “prevention” value is recorded as “abrogated”. Also, in [1] (hypoxia), the “abrogation of the effect of Cl-IB-MECA in HIF-1α modulation” value is listed as “able to abrogate”. In addition, the IC50 in assay [1] (read-out: IC50 for inhibition of HIF-1α protein increase induced by 10 nM Cl-IB-MECA, hypoxia 4 hours, MRE 3008F20 0.3-30 nM) was 0.9 ± 0.08 nM. The “modulation of HIF-1β protein expression” value in assay [2] is recorded as “neither MRE 3008F20 nor MRE 3005F20 had any effect”.

On to `Oc1ccc(-c2nc(-c3ccncc3)c(-c3ccc(F)cc3)[nH]2)cc1` [SB202190], for which, in [1] (setting [12]), the “inhibition of Cl-IB-MECA-induced increase of HIF-1α protein expression” value is “able to inhibit”.
